Laboratory results: patent US20200131227A1, “POLYPEPTIDE WITH TUMOUR BINDING ACTIVITY” (RUPRECHT-KARLS-UNIVERSITÄT HEIDELBERG, priority 2017, published 2020)
Where “and” joins values, the source holds several entries; their conditions need not be identical. Equal values may be shown once. *1 amine or outer side, *2 acyl side, *3 side chain or, on linkers, in order; H or OH if unused. Bridges are numbered along the chain shown (N, C = ends). Roman numbers before positions name the chains, in order. Where no end group is shown, it is not given here. [ ]: non-standard residue; d: D form. The star is where a group is joined. ξ: configuration not given here. DOTA = O=C(O)CN1CCN(CC(=O)O)CCN(CC(=O)*)CCN(CC(=O)O)CC1; 125I = iodine-125 label on tyrosine, [125I]*; X1 = O=C(CO/N=C/C(=O)[*:2])[*:1]; ξK = NCCCCC(N)C(=O)O; ξS = NC(CO)C(=O)O

Columns and labels:
HT29 cells = assay: In vitro binding on HT29 cells; assay type: cell-based, human; details: 60 min; percent applied dose/10^6 cells
Experimental: (§1) For binding studies, 2.5×10^5 to 4×10^5 cells were seeded in 6-well plates and cultivated for 48 hours. Cells were incubated for 60 min with 1 mL serum-free medium containing the ^125I-labeled peptide (see above). For competition experiments, cells were simultaneously exposed to unlabeled (10^-4 M to 10^-10 M) and ^125I-labeled peptides. After three washing steps with PBS (pH 7.4) the cells were lysed with 0.5 mL of 0.3 M NaOH. Experiments concerning the internalization, kinetics and efflux were additionally performed with ^177Lu-DOTA-SFITGv6. To evaluate kinetics and efflux HNO97 cells were incubated for different time intervals (10 min to 480 min) and 60 min, respectively, with ^177Lu-DOTA-SFITGv6 and lysed as described. To continue with the efflux experiment radioactive medium was replaced by non-radioactive medium and cells were incubated again for 60 to 240 min before measuring radioactivity of the cell lysates and the medium. For internalization experiments the cells were exposed to ^177Lu-DOTA-SFITGv6 for different time intervals (10 to 240 min) at 37° C. and 4° C. After three washing steps with PBS the cells were incubated with 1 mL of glycine-HCl 50 mmol/L in PBS (pH 2.8) for 10 min at RT to remove the surface bound activity. […] Radioactivity was determined in a gamma counter and calculated as percentage of the applied dose per 1×10^6 cells. […]

HNO399 cells = assay: In vitro binding on HNO399 cells; assay type: cell-based, human; details: 60 min; percent applied dose/10^6 cells
Experimental: For the assessment of the peptide binding capacity in vitro, 2.5-4×10^5 cells were seeded into 6-well plates and cultivated for 48 h. ^125I-labeled peptide resuspended in 1 mL serum-free medium was added and incubated for either 10 min or 60 min with or without different concentrations of unlabeled peptide (10^−4-10^−11 M). Afterwards, cell monolayers were washed three times with 1 mL phosphate-buffered saline (pH 7.4) to remove unbound peptide and the cells were harvested with 1.4 mL lysis buffer (0.3 M NaOH). […] For the efflux experiments the cells were incubated with ^177Lu-DOTA-labeled peptides for 60 min. Thereafter, radioactive medium was replaced by non-radioactive medium and cell monolayers were incubated for additional 60, 120, and 240 min and afterwards lysed as described earlier. […] Unspecifically bound peptide was removed from the surface by incubation with 1 M glycine-HCl solution (pH 2.2) for 10 min. The monolayer cell was rinsed with PBS and cells were lysed as described before. Radioactivity was determined in a y-counter and calculated as percentage of the applied dose per 1×10^6 cells. Experiments were performed three times, and three repetitions per independent experiment were acquired.

HNO97 cells = assay: In vitro binding, kinetics, internalization and efflux on HNO97 cells; assay type: cell-based, human
Experimental: (§2) For binding studies, 2.5×10^5 to 4×10^5 cells were seeded in 6-well plates and cultivated for 48 hours. Cells were incubated for 60 min with 1 mL serum-free medium containing the ^125I-labeled peptide (see above). For competition experiments, cells were simultaneously exposed to unlabeled (10^-4 M to 10^-10 M) and ^125I-labeled peptides. After three washing steps with PBS (pH 7.4) the cells were lysed with 0.5 mL of 0.3 M NaOH. Experiments concerning the internalization, kinetics and efflux were additionally performed with ^177Lu-DOTA-SFITGv6. To evaluate kinetics and efflux HNO97 cells were incubated for different time intervals (10 min to 480 min) and 60 min, respectively, with ^177Lu-DOTA-SFITGv6 and lysed as described. To continue with the efflux experiment radioactive medium was replaced by non-radioactive medium and cells were incubated again for 60 to 240 min before measuring radioactivity of the cell lysates and the medium. For internalization experiments the cells were exposed to ^177Lu-DOTA-SFITGv6 for different time intervals (10 to 240 min) at 37° C. and 4° C. After three washing steps with PBS the cells were incubated with 1 mL of glycine-HCl 50 mmol/L in PBS (pH 2.8) for 10 min at RT to remove the surface bound activity. Then, cells were washed with 3 mL of ice-cold PBS and lysed as described. Radioactivity was determined in a gamma counter and calculated as percentage of the applied dose per 1×10^6 cells. Experiments were performed three times, and three repetitions per independent experiment were acquired.
(§3) For the assessment of the peptide binding capacity in vitro, 2.5-4×10^5 cells were seeded into 6-well plates and cultivated for 48 h. ^125I-labeled peptide resuspended in 1 mL serum-free medium was added and incubated for either 10 min or 60 min with or without different concentrations of unlabeled peptide (10^−4-10^−11 M). Afterwards, cell monolayers were washed three times with 1 mL phosphate-buffered saline (pH 7.4) to remove unbound peptide and the cells were harvested with 1.4 mL lysis buffer (0.3 M NaOH). To evaluate kinetic properties the cells were exposed to ^177Lu-DOTA-labeled peptides for 10, 30, 60, 120, and 240 min, respectively, and lysed as described. For the efflux experiments the cells were incubated with ^177Lu-DOTA-labeled peptides for 60 min. Thereafter, radioactive medium was replaced by non-radioactive medium and cell monolayers were incubated for additional 60, 120, and 240 min and afterwards lysed as described earlier. The internalization was assessed after exposure of the cells to ^177Lu-DOTA-labeled peptides for 10, 30, 60, 120, and 240 min at 37° C. Unspecifically bound peptide was removed from the surface by incubation with 1 M glycine-HCl solution (pH 2.2) for 10 min. The monolayer cell was rinsed with PBS and cells were lysed as described before. Radioactivity was determined in a y-counter and calculated as percentage of the applied dose per 1×10^6 cells. Experiments were performed three times, and three repetitions per independent experiment were acquired.

HNO258 cells = assay: In vitro binding on HNO258 cells; assay type: cell-based, human; details: 60 min; percent applied dose/10^6 cells
Experimental: as §1

[1] = Serum stability assay (radio-HPLC); assay type: in vitro ADME, human
Experimental: Five MBq of the purified ^131I-radiolabeled peptide was incubated in 300 μL human serum at 37° C. After different time intervals (15 min to 24 hours) 20 μL serum was precipitated with 40 μL acetonitrile. The stability of the labeled peptide in the supernatant was monitored by radio-HPLC at selected time points using a chromolith performance RP18ec column (3 mm×100 mm) equipped with a gamma detector (Packard COBRA™ Auto-Gamma, GMI). Separation condition was a gradient of 0% to 60% aqueous acetonitrile supplemented with 0.1% TFA over 10 min with a flow rate of 2 mL/min.

carcinoma cell lines = assay: In vitro binding of radiolabeled peptides to several carcinoma cell lines; assay type: cell-based, human; details: for binding of ^125I-labeled peptide with unlabeled peptide as competitor: co-incubation with 10^-6 M unlabeled peptide, 60 min, all cell lines tested
Experimental: as §2, §3

HNO210 cells = assay: In vitro binding on HNO210 cells; assay type: cell-based, human; details: 60 min; percent applied dose/10^6 cells
Experimental: For binding studies, 2.5×10^5 to 4×10^5 cells were seeded in 6-well plates and cultivated for 48 hours. Cells were incubated for 60 min with 1 mL serum-free medium containing the ^125I-labeled peptide (see above). For competition experiments, cells were simultaneously exposed to unlabeled (10^-4 M to 10^-10 M) and ^125I-labeled peptides. After three washing steps with PBS (pH 7.4) the cells were lysed with 0.5 mL of 0.3 M NaOH. Experiments concerning the internalization, kinetics and efflux were additionally performed with ^177Lu-DOTA-SFITGv6. […] To continue with the efflux experiment radioactive medium was replaced by non-radioactive medium and cells were incubated again for 60 to 240 min before measuring radioactivity of the cell lysates and the medium. […] Radioactivity was determined in a gamma counter and calculated as percentage of the applied dose per 1×10^6 cells. […]
For the assessment of the peptide binding capacity in vitro, 2.5-4×10^5 cells were seeded into 6-well plates and cultivated for 48 h. ^125I-labeled peptide resuspended in 1 mL serum-free medium was added and incubated for either 10 min or 60 min with or without different concentrations of unlabeled peptide (10^−4-10^−11 M). […] The internalization was assessed after exposure of the cells to ^177Lu-DOTA-labeled peptides for 10, 30, 60, 120, and 240 min at 37° C. […]

LUDLU-1 cells = assay: In vitro binding on LUDLU-1 cells; assay type: cell-based, human; details: 60 min; percent applied dose/10^6 cells
Experimental: as §1

UM-UC-5 cells = assay: In vitro binding on UM-UC-5 cells; assay type: cell-based, human; details: 60 min; percent applied dose/10^6 cells
Experimental: as §1

MCF-7 cells = assay: In vitro binding on MCF-7 cells; assay type: cell-based, human; details: 60 min; percent applied dose/10^6 cells
Experimental: as §1

Row | IC50 (Capan-2 cells) | Substance | binding of ^125I-labeled peptide (HT29 cells) | binding of ^125I-labeled peptide (HNO399 cells) | retention of radioactivity in cells (efflux experiment) (HNO97 cells; 240 min after termination of the uptake (1 h exposure), of originally accumulated activity) | maximal uptake of ^125I-labeled peptide (kinetics) (HNO97 cells; after exposure for 60 min) | internalization of ^125I-labeled peptide after decrease (HNO97 cells; decrease following the 60 min maximum) | maximal internalization of ^125I-labeled peptide (HNO97 cells; within 60 min) | binding of ^125I-labeled peptide (HNO258 cells) | proteolytic stability in human serum [1] | competition of binding by non-radioactively labeled counterpart (carcinoma cell lines; 10^−6 M competitor, all tested HNSCC cell lines) | competition of binding by unlabeled analog (carcinoma cell lines; 10^−6 M unlabeled analog) | average specific binding of ^125I-labeled peptide (carcinoma cell lines; HNO97, other HNSCC, lung, bladder and colon carcinoma cell lines) | binding of ^125I-labeled peptide with unlabeled peptide as competitor (carcinoma cell lines) | binding of ^125I-labeled peptide (HNO210 cells) | binding of ^125I-labeled peptide (LUDLU-1 cells) | binding of ^125I-labeled peptide (UM-UC-5 cells) | binding of ^125I-labeled peptide (MCF-7 cells) | maximal uptake of ^125I-labeled peptide (kinetics) (HNO97 cells; after exposure for 120 min) | uptake of ^125I-labeled peptide after decrease (kinetics) (HNO97 cells; decrease following the 120 min maximum)
1 |  | ^125I-SFITGv6: ^125I-labeled SFITGv6 (GRCTFRGDLMQLCY(125I)PD; disulfide 3-13) | 2.8% | 9.8% | less than 5% | 37.3% | 12.6% | up to 24.1% | 3.5% | no degradation over a 24 hours | almost completely competed | more than 90% | 7% | below 1 % of the applied dose | 7.1% and 10.5% | 4.3% | 10.4% |  |  | 
2 | 760 pM | I: GRCTGRGDLGRLCYPD-NH2 / II: GRCTGRGDLGRLCYPD-NH2 / III: GRCTGRGDLGRLCYPD-NH2 / IV: {DOTA}-G[ξS]G[ξS][ξK]G[ξS]G[ξS][ξK]G[ξS]G[ξS][ξK]-NH2 (disulfide I:3-I:13, II:3-II:13, III:3-III:13; linker I:N-IV:15, II:N-IV:10, III:N-IV:5 via X1) [^125I-DOTA-SFLAP3-trimer] |  |  |  |  |  |  |  |  |  |  |  |  |  |  |  |  |  | 
3 |  | ^125I-SFPF-10: ^125I-labeled peptide SFPF-10 (GRCTFRGDKMQLCY(125I)PD; disulfide 3-13 (inferred)) |  |  |  |  |  |  | 2.6% |  |  |  |  | below 1 % of the applied dose |  |  | 7.5% | 1.6% | 12.6% | 6.7%
